# In patent publication EP4722228A1, “NEW COMPOUND TARGETING MUSK AND USE THEREOF” (The University of Tokyo, priority 2023, dated 2024):
# Numbered stars: 1 amine (or outer) side, 2 acyl side, 3 side chain; on linkers, the order of the positions; unused ones are H or OH. Bridge positions count the residues as written; N and C are the ends. Square brackets hold non-standard residues; d marks the D form. Peptide text beside a SMILES is read from it. I, II: the chains in the order shown. X1 = O=C(CCN1C(=O)CC([*:1])C1=O)NCCOCCOCCOCCOCCOCCOCCOCCOCCOCCOCCOCCNC(=O)CCN1C(=O)CC([*:2])C1=O; X2 = O=C(CCN1C(=O)CC([*:1])C1=O)NCCCOCCOCCOCCCNC(=O)CCN1C(=O)CC([*:2])C1=O
# Target: T1, human MuSK (Homo sapiens, UniProt O15146)
# T1 construct: DNA corresponding to the extracellular portion (amino acids 1-493) was amplified by a PCR method; made in house; host or cells: Expi293F cells
# T1 sequence (O15146 24-493): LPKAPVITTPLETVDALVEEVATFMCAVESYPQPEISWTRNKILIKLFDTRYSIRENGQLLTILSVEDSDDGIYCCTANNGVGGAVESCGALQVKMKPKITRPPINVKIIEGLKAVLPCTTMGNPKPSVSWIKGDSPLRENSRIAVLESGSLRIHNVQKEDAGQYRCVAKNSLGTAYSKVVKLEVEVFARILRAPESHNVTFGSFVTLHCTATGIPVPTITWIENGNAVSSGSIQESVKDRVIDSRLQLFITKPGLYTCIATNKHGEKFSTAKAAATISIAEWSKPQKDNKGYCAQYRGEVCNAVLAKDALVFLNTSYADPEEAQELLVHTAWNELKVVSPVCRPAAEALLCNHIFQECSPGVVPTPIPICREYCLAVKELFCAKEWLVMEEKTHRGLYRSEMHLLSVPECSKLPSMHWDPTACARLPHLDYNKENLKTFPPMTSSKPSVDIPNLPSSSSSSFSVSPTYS
# Assay: SPR binding activity test to human MuSK (Biacore)
# Conditions: human MuSK, peptide homodimers
# Experimental: The human MuSK protein (extracellular portion) was prepared as a recombinant protein as follows. Using a Flexi clone (FXC31275, Promega Corporation) encoding Human MuSK isoform 1 precursor (NCBI Reference Sequence: NP_005583.1) as a template, DNA corresponding to the extracellular portion (amino acids 1-493) was amplified by a PCR method. XhoI and EcoRI restriction enzyme recognition sequences were added to both the 5' and 3' ends of the amplified DNA sequence, and these were used for insertion into the multiple cloning site of a pCAG-Neo hIgG1-Fc plasmid (Fujifilm Wako Pure Chemical Corporation). This plasmid (pCAG-Neo hMuSK-Fc) enables expression of a chimeric protein of the secretory human MuSK extracellular portion and human IgG1 Fc (hMuSK-Fc; molecular weight of approximately 200 kDa) in animal cells. In practice, ExpiFectamine 293 reagent (Invitrogen) was used to transfect the pCAG-Neo hMuSK-Fc plasmid into Expi293F cells (Invitrogen), and shaking culture was carried out (for 6 days) in an incubator containing 8% CO2. Next, the culture supernatant was collected, centrifuged, and sterilized by filtration through a 0.22 µm filter. The obtained culture supernatant was subjected to Protein G purification, and finally, a purified hMuSK-Fc sample with 99.96% purity (AKTA-FPLC analysis) was obtained.
# The strength of binding between MuSK and the cyclic peptides was evaluated by quantitatively measuring the binding kinetics (binding affinity (dissociation constant) KD) of the cyclic peptides to MuSK immobilized on a sensor chip via an Fc tag, using surface plasmon resonance (SPR).
# According to the standard immobilization protocol provided by the manufacturer, Fc-tagged human/mouse/rat MuSK was immobilized on a Protein G chip or a Protein A chip (Cytiva). A running buffer for the monomer/dimer peptides contained 0.010 M phosphate, 0.14 M NaCl, 0.0027 M KCl, 0.05% (v/v) Tween 20, and 0.1% (v/v) DMSO. A running buffer for the monomer/dimer U-bodies contained 0.010 M phosphate, 0.14 M NaCl, 0.0027 M KCl, and 0.05% (v/v) Tween 20. A series of concentrations of each monomer peptide, dimer peptide, monomer U-body, and dimer U-body was injected as analytes. A 1:1 binding fitting analysis was applied using Biacore evaluation software, and ka, kd, and KD values were determined.
# Fc-tagged human MuSK was prepared according to the procedure described in Example 1(1). In addition, Fc-tagged mouse MuSK was used by expressing a nucleotide sequence encoding the Fc-tagged mouse MuSK extracellular domain (SEQ ID NO: 34). In addition, Fc-tagged rat MuSK was used as a chimeric protein of rat MuSK and an Fc protein, namely, Recombinant Rat MuSK Fc Chimera Protein (catalog number: 9847-MK-050, R&D Systems).
# The affinity of the U-bodies and their complexes obtained as described above for MuSK of human, rat, and mouse was evaluated (binding activity test). The test was carried out according to the procedure described in Example 1(3). However, for the complexes of U-bodies, surface plasmon resonance (SPR) analysis was carried out using a Biacore 8K (Cytiva).
Compound,koff,kon
"CC[C@H](C)[C@@H]1NC(=O)[C@H](CC(N)=O)NC(=O)[C@H](C(C)C)NC(=O)[C@H](Cc2ccc(O)cc2)NC(=O)CNC(=O)[C@@H]2CCCN2C(=O)[C@H](CCC(N)=O)NC(=O)[C@H](CC(C)C)NC(=O)[C@H](Cc2ccc(O)cc2)NC(=O)[C@H](Cc2c[nH]c3ccccc23)NC(=O)[C@@H](Cc2ccc(O)cc2)NC(=O)CSC[C@@H](C(=O)N[C@@H](CSC2CC(=O)N(CCC(=O)NCCOCCOCCOCCOCCOCCOCCOCCOCCOCCOCCOCCNC(=O)CCN3C(=O)CC(SC[C@H](NC(=O)[C@@H]4CSCC(=O)N[C@H](Cc5ccc(O)cc5)C(=O)N[C@@H](Cc5c[nH]c6ccccc56)C(=O)N[C@@H](Cc5ccc(O)cc5)C(=O)N[C@@H](CC(C)C)C(=O)N[C@@H](CCC(N)=O)C(=O)N5CCC[C@H]5C(=O)NCC(=O)N[C@@H](Cc5ccc(O)cc5)C(=O)N[C@@H](C(C)C)C(=O)N[C@@H](CC(N)=O)C(=O)N[C@@H]([C@@H](C)CC)C(=O)N[C@@H](C(C)C)C(=O)N[C@@H]([C@@H](C)O)C(=O)N[C@@H](CO)C(=O)N[C@@H](Cc5ccc(O)cc5)C(=O)N[C@@H](Cc5c[nH]cn5)C(=O)N4)C(N)=O)C3=O)C2=O)C(N)=O)NC(=O)[C@H](Cc2c[nH]cn2)NC(=O)[C@H](Cc2ccc(O)cc2)NC(=O)[C@H](CO)NC(=O)[C@H]([C@@H](C)O)NC(=O)[C@H](C(C)C)NC1=O (stereo partly shown) [MuSK9 PEG11 dimer] (I: {CH2CO}-[dY]WYLQPGYVNIVTSYHCC-NH2 / II: {CH2CO}-[dY]WYLQPGYVNIVTSYHCC-NH2; linker I:18-II:18 via X1; thioether I:N-I:17, II:N-II:17)",0.0017 s⁻¹,440000 M⁻¹ s⁻¹
I: Ac-C[dY]LPEFSWPESFVLFLRQRQRQLGRGAE-NH2 / II: Ac-C[dY]LPEFSWPESFVLFLRQRQRQLGRGAE-NH2 (linker I:1-II:1 via X1) [MuSK1Ac PEG11 dimer],0.001 s⁻¹,660000 M⁻¹ s⁻¹
I: Ac-C[dY]LPEFSWPESFVLFLRQRQRQLGRGAE-NH2 / II: Ac-C[dY]LPEFSWPESFVLFLRQRQRQLGRGAE-NH2 (linker I:1-II:1 via X2) [MuSK1Ac PEG3 dimer],0.0013 s⁻¹,300000 M⁻¹ s⁻¹
I: Ac-[dY]LPEFSWPESFVLFLRQRQRQLGRGAEC-NH2 / II: Ac-[dY]LPEFSWPESFVLFLRQRQRQLGRGAEC-NH2 (linker I:28-II:28 via X1) [MuSK1Ac Term PEG11 dimer],0.0018 s⁻¹,520000 M⁻¹ s⁻¹
I: Ac-[dY]LPEFSWPESFVLFLRQRQRQLGRGAEC-NH2 / II: Ac-[dY]LPEFSWPESFVLFLRQRQRQLGRGAEC-NH2 (linker I:28-II:28 via X2) [MuSK1Ac Term PEG3 dimer],0.0012 s⁻¹,200000 M⁻¹ s⁻¹

# Same assay, conditions: human MuSK, peptide homodimers, read-out: Kd
row,Compound,Kd
1,"CC[C@H](C)[C@@H]1NC(=O)[C@H](CC(N)=O)NC(=O)[C@H](C(C)C)NC(=O)[C@H](Cc2ccc(O)cc2)NC(=O)CNC(=O)[C@@H]2CCCN2C(=O)[C@H](CCC(N)=O)NC(=O)[C@H](CC(C)C)NC(=O)[C@H](Cc2ccc(O)cc2)NC(=O)[C@H](Cc2c[nH]c3ccccc23)NC(=O)[C@@H](Cc2ccc(O)cc2)NC(=O)CSC[C@@H](C(=O)N[C@@H](CSC2CC(=O)N(CCC(=O)NCCOCCOCCOCCOCCOCCOCCOCCOCCOCCOCCOCCNC(=O)CCN3C(=O)CC(SC[C@H](NC(=O)[C@@H]4CSCC(=O)N[C@H](Cc5ccc(O)cc5)C(=O)N[C@@H](Cc5c[nH]c6ccccc56)C(=O)N[C@@H](Cc5ccc(O)cc5)C(=O)N[C@@H](CC(C)C)C(=O)N[C@@H](CCC(N)=O)C(=O)N5CCC[C@H]5C(=O)NCC(=O)N[C@@H](Cc5ccc(O)cc5)C(=O)N[C@@H](C(C)C)C(=O)N[C@@H](CC(N)=O)C(=O)N[C@@H]([C@@H](C)CC)C(=O)N[C@@H](C(C)C)C(=O)N[C@@H]([C@@H](C)O)C(=O)N[C@@H](CO)C(=O)N[C@@H](Cc5ccc(O)cc5)C(=O)N[C@@H](Cc5c[nH]cn5)C(=O)N4)C(N)=O)C3=O)C2=O)C(N)=O)NC(=O)[C@H](Cc2c[nH]cn2)NC(=O)[C@H](Cc2ccc(O)cc2)NC(=O)[C@H](CO)NC(=O)[C@H]([C@@H](C)O)NC(=O)[C@H](C(C)C)NC1=O (stereo partly shown) [MuSK9 PEG11 dimer] (I: {CH2CO}-[dY]WYLQPGYVNIVTSYHCC-NH2 / II: {CH2CO}-[dY]WYLQPGYVNIVTSYHCC-NH2; linker I:18-II:18 via X1; thioether I:N-I:17, II:N-II:17)",3.9 nM

# Test system: C2C12 myotubes (Agrin-induced AChR clusters)
# Assay: Agrin-induced AChR clusters in myotubes with tyrosine kinase inhibitors
# Format: cell-based, mouse
# Conditions: 10 pM recombinant rat agrin, inhibitor (3 nM) added simultaneously, 20 hours
# Text: The mouse myoblast-derived cell line C2C12 (CRL-1772) was purchased from the American Type Culture Collection and used. For subculture, Dulbecco's Modified Eagle Medium (DMEM, high glucose, GlutaMAX supplement, pyruvate; GIBCO) supplemented with 20% fetal bovine serum (FBS; GIBCO) was used. For passage, after the culture medium was removed by suction, adherent cells were washed with phosphate buffered saline (PBS(-)), and HBSS (GIBCO) containing no Mg^2+ and Ca^2+ and containing 0.25% trypsin and 1 mM ethylenediaminetetraacetic acid was added, and the mixture was reacted in a CO2 incubator (37°C, 5% CO2) for 5 minutes. The detached cells were collected and then centrifuged at 1000 rpm at 4°C for 5 minutes (Sorvall X4R Pro, Thermo Fisher Scientific Inc.). After the supernatant was removed by suction, the cells were suspended in fresh culture medium, and 100 µL was seeded into a 96-well plate (BioCoat Collagen I 96-well Black/Clear plate, Corning Inc.) and cultured in a CO2 incubator (37°C, 5% CO2) until reaching confluence, typically within 72 hours. Subsequently, the culture medium was removed and the first medium change was performed with DMEM containing 2% horse serum (GIBCO) for induction of myotube cell differentiation.
# A differentiation medium supplemented with an appropriate amount of the homodimer of the cyclic peptide MuSK7 (MuSK7 PEG11 dimer) was prepared in advance in a 96-well plate (Nunclon Δ Surface, 167008, Nunc), and used at 100 µL/well at the time of the second medium change in the process of inducing differentiation into myotubes. 20 hours after addition of the homodimer of the cyclic peptide MuSK7, the medium was removed, the cells were washed with PBS(-), and then fixed at room temperature for 15 minutes with PBS(-) containing 4% formaldehyde. After washing several times with 1% BSA-PBS(-), fluorescently labeled α-bungarotoxin (α-Btx, Alexa Fluor 488 conjugate; Invitrogen) was added to 1% BSA-PBS(-) at a final concentration of 100 nM, and after adding this to the wells, the mixture was allowed to stand at room temperature under a light-shielded condition for 30 minutes. After washing the cells several times with 1% BSA-PBS(-), 100 µL of PBS(-) was added to each well, and fluorescence observation was performed using a fluorescence imaging device. For observation of fluorescently labeled AChR clusters, an EVOS M7000 imaging system (Thermo Fisher Scientific Inc.) was used. During fluorescence image observation, a 10× objective lens was used, and tiff images of an area equivalent to 1 mm^2 were obtained. […] The average number of AChR clusters counted from the three tiff images derived from the same well was calculated and drawn on a graph.
# MuSK inhibitor candidates were searched in the KinaseNET database (http://www.kinasenet.ca/) published as an open resource by Kinexus Bioinformatics Corporation (Canada), and three tyrosine kinase inhibitors (AST-487, Foretinib, and Sorafenib) were identified. Next, groups were prepared in which 10 pM recombinant rat agrin protein (550-AG, R&D Systems) derived from C2C12 myotubes was added alone, or in which each tyrosine kinase inhibitor (3 nM) was added simultaneously, and detection and observation of Agrin-induced AChR clusters were performed 20 hours after compound addition (five types, Crizotinib, Linifanib, AST-1306, Dovitinib, and BMS-754807, were used as non-MuSK inhibitory tyrosine kinase inhibitors).
row,Compound,number of AChR clusters
1,C=CC(=O)Nc1ccc2ncnc(Nc3ccc(OCc4cccc(F)c4)c(Cl)c3)c2c1 [AST-1306],comparable to that in the negative control group (DMSO alone)
2,C[C@@]1(C(=O)Nc2ccc(F)nc2)CCCN1c1nc(Nc2cc(C3CC3)n[nH]2)c2cccn2n1 [BMS-754807],comparable to that in the negative control group (DMSO alone)
3,C[C@@H](Oc1cc(-c2cnn(C3CCNCC3)c2)cnc1N)c1c(Cl)ccc(F)c1Cl [Crizotinib],comparable to that in the negative control group (DMSO alone)

# Same assay, conditions: 10 pM recombinant rat agrin, inhibitor (3 nM) added simultaneously, 20 hours; presumed
row,Compound,MuSK inhibitory effects
1,COc1cc2c(Oc3ccc(NC(=O)C4(C(=O)Nc5ccc(F)cc5)CC4)cc3F)ccnc2cc1OCCCN1CCOCC1 [Foretinib],weaker MuSK inhibitory effects compared with AST-487
2,CNC(=O)c1cc(Oc2ccc(NC(=O)Nc3ccc(Cl)c(C(F)(F)F)c3)cc2)ccn1 [Sorafenib],weaker MuSK inhibitory effects compared with AST-487
